25 molecules from ChEMBL document CHEMBL6078689, “Discovery of novel biaryl urea derivatives against IL-1β release with low toxicity based on NEK7 inhibitor” (Eur J Med Chem, 2025) can be followed below.

The source made the active and inactive calls. The calls are words filed in the database; no cut-off is given here. A value given as a limit tells only on which side of the number the result lay.

Data set [1] can be described thus: Cytotoxicity against C57BL/6 mouse BMDM cells assessed as cell viability at 0.1 uM incubated for 4 hrs by CCK-8 assay relative to control. It counts as toxicity, cell-based. The note with it: bone marrow-derived macrophages (BMDM cells), read-out: Activity. (In general: Tetrazolium assays rely on reduction of a dye to a coloured formazan, in cell work by metabolically active cells.)

Data set [2] deals with BMDM. Briefly: Inhibition of NLRP3 inflammasome activation in LPS-induced C57BL/6 mouse BMDM cells assessed as reduction in IL-1beta release at 0.1 uM preincubated with LPS for 1 hrs followed by compound addition and measured after 2 hrs by ELISA relative to control. It counts as cell-based. (In general: ELISA stands for enzyme-linked immunosorbent assay.)
For data set [3], the target named is NLRP3-NEK7 (Mus musculus) (UniProt Q8R4B8+Q9ES74). Briefly: Inhibition of NLRP3/NEK7 protein-protein interaction in LPS-induced C57BL/6 mouse BMDM cells by co-immunoprecipitation based Western blot analysis. It counts as cell-based.
NLRP3-NEK7 (Mus musculus), sequence (Q8R4B8 whole entry, looked up): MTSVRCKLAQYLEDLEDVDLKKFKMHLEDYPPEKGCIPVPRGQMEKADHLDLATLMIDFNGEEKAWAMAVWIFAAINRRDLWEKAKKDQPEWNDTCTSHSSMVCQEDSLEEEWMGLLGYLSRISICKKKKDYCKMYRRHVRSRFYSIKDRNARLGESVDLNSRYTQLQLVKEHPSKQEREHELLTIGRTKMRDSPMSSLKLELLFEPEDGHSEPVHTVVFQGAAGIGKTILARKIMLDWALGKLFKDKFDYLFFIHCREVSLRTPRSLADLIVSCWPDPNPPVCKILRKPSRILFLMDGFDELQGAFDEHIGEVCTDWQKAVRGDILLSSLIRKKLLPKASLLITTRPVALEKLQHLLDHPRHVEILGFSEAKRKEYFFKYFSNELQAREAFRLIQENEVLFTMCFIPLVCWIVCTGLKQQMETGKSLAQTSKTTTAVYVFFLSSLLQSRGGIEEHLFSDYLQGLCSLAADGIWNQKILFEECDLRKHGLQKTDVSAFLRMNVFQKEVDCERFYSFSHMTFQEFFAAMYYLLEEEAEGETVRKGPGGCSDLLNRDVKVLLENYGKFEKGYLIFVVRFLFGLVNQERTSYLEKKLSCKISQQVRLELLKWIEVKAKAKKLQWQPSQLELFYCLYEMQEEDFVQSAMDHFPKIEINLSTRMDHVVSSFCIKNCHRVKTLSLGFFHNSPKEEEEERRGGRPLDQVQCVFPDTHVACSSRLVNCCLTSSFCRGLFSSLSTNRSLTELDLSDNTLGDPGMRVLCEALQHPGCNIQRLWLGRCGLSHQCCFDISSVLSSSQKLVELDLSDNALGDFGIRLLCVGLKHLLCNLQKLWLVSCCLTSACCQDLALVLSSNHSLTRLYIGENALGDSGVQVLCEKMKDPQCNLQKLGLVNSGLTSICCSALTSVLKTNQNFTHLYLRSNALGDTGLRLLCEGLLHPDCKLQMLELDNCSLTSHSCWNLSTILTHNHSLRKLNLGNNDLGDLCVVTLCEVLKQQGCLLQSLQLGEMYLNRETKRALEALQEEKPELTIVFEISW
NLRP3-NEK7 (Mus musculus), sequence (Q9ES74 whole entry, looked up): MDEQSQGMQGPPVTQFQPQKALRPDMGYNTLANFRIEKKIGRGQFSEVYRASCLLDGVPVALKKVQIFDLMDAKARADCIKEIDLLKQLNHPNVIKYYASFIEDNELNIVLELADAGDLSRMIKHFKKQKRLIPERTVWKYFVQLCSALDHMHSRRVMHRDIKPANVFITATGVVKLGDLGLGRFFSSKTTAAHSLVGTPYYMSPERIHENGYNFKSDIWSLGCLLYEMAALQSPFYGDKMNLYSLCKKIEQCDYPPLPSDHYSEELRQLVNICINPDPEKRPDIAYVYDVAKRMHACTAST
A short description of data set [4]: Selectivity index, ratio of CC50 for C57BL/6 mouse BMDM cells to IC50 for Inhibition of NLRP3 inflammasome activation in LPS-induced C57BL/6 mouse BMDM cells assessed as reduction in IL-1beta release. Type of data set: toxicity, cell-based. Particulars: bone marrow-derived macrophages (BMDM cells), read-out: Ratio CC50/IC50.
Data set [5] can be described thus: Cytotoxicity against C57BL/6 mouse BMDM cells assessed as cell viability incubated for 4 hrs by CCK-8 assay. Type of data set: toxicity, cell-based. Particulars: bone marrow-derived macrophages (BMDM cells).
Data set [6] has as its system BMDM. Briefly: Binding affinity to NEK7 in LPS-primed C57BL/6 mouse BMDM cells assessed as thermal stabilization preincubated with LPS for 1 hrs followed by compound addition and incubated for 2 hrs under 48 to 53 degreeC by CETSA. Type of data set: cell-based.
A short description of data set [7]: Inhibition of NLRP3 inflammasome activation in LPS-induced C57BL/6 mouse BMDM cells assessed as reduction in IL-1beta release preincubated with LPS for 1 hrs followed by compound addition and measured after 2 hrs by ELISA. Type of data set: cell-based. The note with it: C57BL/6, BMDM.
Data set [8] addresses Serine/threonine-protein kinase Nek7 (Homo sapiens, UniProt Q8TDX7). Briefly: Inhibition of N-terminal GST-tagged full-length recombinant human NEK7 extracted from baculovirus infected in Sf9 cells preincubated for 20 mins followed by [32P]-ATP addition and measured after 2 hrs.

Serine/threonine-protein kinase Nek7, sequence (Q8TDX7 whole entry): as the sequence (Q9ES74 whole entry, looked up) above, with T14P, S52A, D150E, I273M, I285V, A286T, T302S counted along it

As to `CC(=O)Nc1ccc(-c2ccc(NC(=O)Nc3ccc(CN4CCN(C)CC4)cc3)c(F)c2)cn1`, the viability at 4 h, 0.1 µM in data set [1] is 94.9%.

`CN1CCN(Cc2ccc(NC(=O)Nc3ccc(-c4ccc(N)cn4)cc3F)cc2C(F)(F)F)CC1`: the viability at 4 h, 0.1 µM in data set [1] is 104%.

A word on the inhibition: it is the relative decrease from the control value, in per cent. As to `CN1CCN(Cc2ccc(NC(=O)Nc3ccc(-c4ccnc(N)n4)cc3F)cc2C(F)(F)F)CC1`, the inhibition in data set [2] is 25.7%. Besides, in data set [1], the viability at 4 h, 0.1 µM was 78%.

Regarding `CN1CCN(Cc2ccc(NC(=O)Nc3ccc(-c4cnc5cccnn45)cc3F)cc2C(F)(F)F)CC1`, the inhibition in data set [2] is -9.39%. The viability at 4 h, 0.1 µM in data set [1] turned out to be 91.4%. The term CC50 denotes the concentration that lowers cell viability or growth by half. What is called IC50 is the concentration at which inhibition is half-maximal. With `CC(=O)Nc1ccc(-c2ccc(NC(=O)Nc3ccc(CN4CCN(C)CC4)c(C(F)(F)F)c3)c(F)c2)cn1`, the inhibition in data set [2] is 90.3%. The inhibition entry in data set [3] is “Active”. For the same molecule, the selectivity ratio in data set [4] was 80.3. Further, in data set [5], the CC50 at 4 h is 3840 nM. In data set [1], the viability at 4 h, 0.1 µM is 98.3%. Moreover, the Activity result in data set [6] was “Active; Compound Is Capable Of Binding To Nek7”. Also, the half-inhibitory concentration (IC50) in data set [7] came to 48 nM.

Regarding `CN1CCN(Cc2ccc(NC(=O)Nc3ccc(-c4c(N)ncc5ccccc45)cc3F)cc2C(F)(F)F)CC1`, the viability at 4 h, 0.1 µM in data set [1] worked out at 61.1%. Take `CN1CCN(Cc2ccc(NC(=O)Nc3ccc(-c4ncc(N)cn4)cc3F)cc2C(F)(F)F)CC1`: in data set [1], the viability at 4 h, 0.1 µM is 71.8%. With `CNc1ccc(-c2ccc(NC(=O)Nc3ccc(CN4CCN(C)CC4)c(C(F)(F)F)c3)c(F)c2)cn1`, the inhibition in data set [2] was found to be 41.5%. Further, the viability at 4 h, 0.1 µM in data set [1] stood at 95.5%.

Turning to `CC(=O)Nc1ccc(-c2ccc(C(=O)Nc3ccc(CN4CCN(C)CC4)c(C(F)(F)F)c3)c(F)c2)cn1`, the viability at 4 h, 0.1 µM in data set [1] is 90.4%.

Regarding `CC(=O)Nc1ccc(-c2ccc(NC(=O)Nc3cccc(C(F)(F)F)c3)c(F)c2)cn1`, the inhibition in data set [2] is -7.98%. Further, the viability at 4 h, 0.1 µM in data set [1] stood at 96.4%. The like results for `CN1CCN(Cc2ccc(NC(=O)Nc3ccc(-c4nccnc4N)cc3F)cc2C(F)(F)F)CC1` were, in that order, 28.2% and 107%. As for `COc1ccc(-c2ccc(NC(=O)Nc3ccc(CN4CCN(C)CC4)c(C(F)(F)F)c3)c(F)c2)cn1`, the viability at 4 h, 0.1 µM in data set [1] amounted to 104%. For `CN1CCN(Cc2ccc(NC(=O)Nc3ccc(-c4nc(N)c5ccccc5n4)cc3F)cc2C(F)(F)F)CC1`, in data set [1], the viability at 4 h, 0.1 µM stood at 108%. As to `CN1CCN(Cc2ccc(NC(=O)Nc3ccc(-c4cnc(N)c5ccccc45)cc3F)cc2C(F)(F)F)CC1`, in data set [2], the inhibition was -7.76%. The viability at 4 h, 0.1 µM in data set [1] turned out to be 108%. Regarding `CN1CCN(Cc2ccc(NC(=O)Nc3ccc(-c4cncnc4N)cc3F)cc2C(F)(F)F)CC1`, the inhibition in data set [2] is -1.08%. For the same molecule, the viability at 4 h, 0.1 µM in data set [1] was found to be 106%. Regarding `CN1CCN(Cc2ccc(NC(=O)Nc3ccc(-c4cccnc4N)cc3F)cc2C(F)(F)F)CC1`, in data set [1], the viability at 4 h, 0.1 µM stood at 65%. For the molecule `CC(C)(O)c1coc(S(=O)(=O)NC(=O)Nc2c3c(cc4c2CCC4)CCC3)c1`, the inhibition in data set [2] turned out to be 66.7%. Moreover, the selectivity ratio in data set [4] is greater than 118. The CC50 at 4 h in data set [5] was greater than 10000 nM. For the same molecule, the IC50 in data set [7] came out at 85 nM. In the case of `CN1CCN(Cc2ccc(NC(=O)Nc3ccc(-c4ccc(O)nc4)cc3F)cc2C(F)(F)F)CC1`, the viability at 4 h, 0.1 µM in data set [1] was 106%. Consider `CN1CCN(Cc2ccc(NC(=O)Nc3ccc(-c4ccnc(N)c4)cc3F)cc2C(F)(F)F)CC1`, for which the inhibition in data set [2] came to 3.67%. Further, the viability at 4 h, 0.1 µM in data set [1] worked out at 112%.

As for `CC(=O)Nc1ccc(-c2ccc(NC(=O)c3ccc(CN4CCN(C)CC4)c(C(F)(F)F)c3)c(F)c2)cn1`, in data set [2], the inhibition was 0%. Besides, the viability at 4 h, 0.1 µM in data set [1] came to 92.6%.

Consider `CN1CCN(Cc2ccc(NC(=O)Nc3ccc(-c4cc5ccccc5nc4N)cc3F)cc2C(F)(F)F)CC1`, for which the viability at 4 h, 0.1 µM in data set [1] is 86%. For `CN1CCN(Cc2ccc(NC(=O)Nc3ccc(-c4nc(N)cc5ccccc45)cc3F)cc2C(F)(F)F)CC1`, the inhibition in data set [2] stood at 30.6%. In data set [1], the viability at 4 h, 0.1 µM turned out to be 122%. Consider `CN1CCN(Cc2ccc(NC(=O)Nc3ccc(-c4ccc(N)nc4)cc3F)cc2C(F)(F)F)CC1`, for which the inhibition in data set [2] was determined as 82.3%. Besides, in data set [4], the selectivity ratio stood at 8.26. Further, the CC50 at 4 h in data set [5] came to 247 nM. Also, the viability at 4 h, 0.1 µM in data set [1] was determined as 86%. In data set [7], the IC50 is 30 nM. As to `CN1CCN(Cc2ccc(NC(=O)Nc3ccc(-c4cccc(N)n4)cc3F)cc2C(F)(F)F)CC1`, the viability at 4 h, 0.1 µM in data set [1] came to 109%. Regarding `CN1CCN(Cc2ccc(NC(=O)Nc3ccc(-c4cn(C5CC5)c5ncnc(N)c45)cc3F)cc2C(F)(F)F)CC1`, the viability at 4 h, 0.1 µM in data set [1] was 17.2%. Besides, in data set [8], the IC50 was less than 100 nM.
